What was measured:
CCRF-CEM = format: cell-based; conditions: Homo sapiens, one dose 10^-5 M, 48 h
HL-60(TB) = format: cell-based; conditions: Homo sapiens, one dose 10^-5 M, 48 h
K-562 = format: cell-based; conditions: Homo sapiens, K562, one dose 10^-5 M, 48 h
MOLT-4 = format: cell-based; conditions: Homo sapiens, one dose 10^-5 M, 48 h, read-out: % growth
RPMI-8226 = format: cell-based; conditions: Homo sapiens, one dose 10^-5 M, 48 h
SR = format: cell-based; conditions: Homo sapiens, one dose 10^-5 M, 48 h
A549/ATCC = format: cell-based; conditions: Homo sapiens, one dose 10^-5 M, 48 h
EKVX = format: cell-based; conditions: Homo sapiens, one dose 10^-5 M, 48 h
HOP-62 = format: cell-based; conditions: Homo sapiens, one dose 10^-5 M, 48 h
HOP-92 = format: cell-based; conditions: Homo sapiens, one dose 10^-5 M, 48 h
NCI-H226 = format: cell-based; conditions: Homo sapiens, one dose 10^-5 M, 48 h
NCI-H23 = format: cell-based; conditions: Homo sapiens, one dose 10^-5 M, 48 h, read-out: % growth
NCI-H460 = format: cell-based; conditions: Homo sapiens, one dose 10^-5 M, 48 h, read-out: % growth
NCI-H522 = format: cell-based; conditions: Homo sapiens, one dose 10^-5 M, 48 h
COLO 205 = format: cell-based; conditions: Homo sapiens, one dose 10^-5 M, 48 h
HCC-2998 = format: cell-based; conditions: Homo sapiens, one dose 10^-5 M, 48 h
HCT-116 = format: cell-based; conditions: Homo sapiens, one dose 10^-5 M, 48 h, read-out: % growth
HCT-15 = format: cell-based; conditions: Homo sapiens, one dose 10^-5 M, 48 h, read-out: % growth
HT29 = format: cell-based; conditions: Homo sapiens, HT-29, one dose 10^-5 M, 48 h
KM12 = format: cell-based; conditions: Homo sapiens, one dose 10^-5 M, 48 h
SW-620 = format: cell-based; conditions: Homo sapiens, one dose 10^-5 M, 48 h
SF-268 = format: cell-based; conditions: Homo sapiens, one dose 10^-5 M, 48 h, read-out: % growth
SF-295 = format: cell-based; conditions: Homo sapiens, one dose 10^-5 M, 48 h
SF-539 = format: cell-based; conditions: Homo sapiens, one dose 10^-5 M, 48 h
SNB-19 = format: cell-based; conditions: Homo sapiens, one dose 10^-5 M, 48 h, read-out: % growth
U251 = format: cell-based; conditions: Homo sapiens, U-251, one dose 10^-5 M, 48 h
LOX IMVI = format: cell-based; conditions: Homo sapiens, one dose 10^-5 M, 48 h, read-out: % growth
MALME-3M = format: cell-based; conditions: Homo sapiens, one dose 10^-5 M, 48 h
M14 = format: cell-based; conditions: Homo sapiens, one dose 10^-5 M, 48 h
MDA-MB-435 = format: cell-based; conditions: Homo sapiens, one dose 10^-5 M, 48 h, read-out: % growth
SK-MEL-2 = format: cell-based; conditions: Homo sapiens, one dose 10^-5 M, 48 h
SK-MEL-28 = format: cell-based; conditions: Homo sapiens, one dose 10^-5 M, 48 h
SK-MEL-5 = format: cell-based; conditions: Homo sapiens, one dose 10^-5 M, 48 h, read-out: % growth
UACC-257 = format: cell-based; conditions: Homo sapiens, one dose 10^-5 M, 48 h
UACC-62 = format: cell-based; conditions: Homo sapiens, one dose 10^-5 M, 48 h
IGROV1 = format: cell-based; conditions: Homo sapiens, IGROV-1, one dose 10^-5 M, 48 h, read-out: % growth
OVCAR-3 = format: cell-based; conditions: Homo sapiens, one dose 10^-5 M, 48 h
OVCAR-4 = format: cell-based; conditions: Homo sapiens, one dose 10^-5 M, 48 h
OVCAR-5 = format: cell-based; conditions: Homo sapiens, one dose 10^-5 M, 48 h
OVCAR-8 = format: cell-based; conditions: Homo sapiens, one dose 10^-5 M, 48 h
NCI/ADR-RES = format: cell-based; conditions: Homo sapiens, one dose 10^-5 M, 48 h
SK-OV-3 = format: cell-based; conditions: Homo sapiens, one dose 10^-5 M, 48 h
786-0 = format: cell-based; conditions: Homo sapiens, one dose 10^-5 M, 48 h
A498 = format: cell-based; conditions: Homo sapiens, one dose 10^-5 M, 48 h
ACHN = format: cell-based; conditions: Homo sapiens, one dose 10^-5 M, 48 h
CAKI-1 = format: cell-based; conditions: Homo sapiens, CAKI-1, 48 h, one dose 10^-5 M, 48 h
RXF 393 = format: cell-based; conditions: Homo sapiens, RXF 393, 48 h, one dose 10^-5 M, 48 h, read-out: % growth
SN12C = format: cell-based, human; conditions: Homo sapiens, one dose 10^-5 M, 48 h
TK-10 = format: cell-based; conditions: Homo sapiens, one dose 10^-5 M, 48 h
UO-31 = format: cell-based; conditions: Homo sapiens, UO-31, 48 h, one dose 10^-5 M, 48 h
PC-3 = format: cell-based; conditions: Homo sapiens, one dose 10^-5 M, 48 h
DU-145 = format: cell-based; conditions: Homo sapiens, one dose 10^-5 M, 48 h
MCF7 = format: cell-based; conditions: Homo sapiens, one dose 10^-5 M, 48 h, read-out: % growth
MDA-MB-231/ATCC = format: cell-based; conditions: Homo sapiens, one dose 10^-5 M, 48 h
HS 578T = format: cell-based; conditions: Homo sapiens; one dose 10^-5 M, 48 h; HS 578T; read-out: % growth
BT-549 = format: cell-based; conditions: Homo sapiens, one dose 10^-5 M, 48 h
T-47D = format: cell-based; conditions: Homo sapiens, T47D, one dose 10^-5 M, 48 h, read-out: % growth
MDA-MB-468 = format: cell-based; conditions: Homo sapiens, one dose 10^-5 M, 48 h
[1] = test system: full NCI 60 cell lines panel; conditions: for activity at 10 µM: Homo sapiens, 60 cell, 48 h, read-out: Mean % growth; for activity on all 60 cancer cell lines tested (in words): one dose

For `N=C(NN=Cc1ccccc1)c1c(N)nc(S)nc1-c1ccc(Cl)cc1Cl` [Compound 4m, 4-Amino-6–(2,4-dichlorophenyl)-2-mercapto-N'-[phenylmethylene]pyrimidine-5-carboximidohydrazide], the % cell growth at 10 µM (CCRF-CEM) was 105%, the % growth at 10 µM (HL-60(TB)) was 97.1% and the % growth at 10 µM (K-562) was 95.8%. The activity at 10 µM (MOLT-4) was 96.2%, the % growth at 10 µM (RPMI-8226) was 104% and the percent cell growth at 10 µM (SR) was 83.2%. The % growth at 10 µM (A549/ATCC) was 97.4%, the % cell growth at 10 µM (EKVX) was 103% and the % growth at 10 µM (HOP-62) was 96.6%. The % growth at 10 µM (HOP-92) was 69.2%, the % growth at 10 µM (NCI-H226) was 92% and the activity at 10 µM (NCI-H23) was 98.7%. It also gave an activity at 10 µM (NCI-H460) of 108%, a % growth at 10 µM (NCI-H522) of 109% and a % growth at 10 µM (COLO 205) of 115%. For the same compound, the % growth at 10 µM (HCC-2998) was 105%, the activity at 10 µM (HCT-116) was 103% and the activity at 10 µM (HCT-15) was 101%. The % growth at 10 µM (HT29) was 108%, the % growth at 10 µM (KM12) was 103% and the % growth at 10 µM (SW-620) was 109%. It also gave an activity at 10 µM (SF-268) of 105%, a % cell growth at 10 µM (SF-295) of 86.9% and a % growth at 10 µM (SF-539) of 100%. The activity at 10 µM (SNB-19) was 95.8%, the % growth at 10 µM (U251) was 97.3% and the activity at 10 µM (LOX IMVI) was 100%. The % growth at 10 µM (MALME-3M) was 85.7%, the % growth at 10 µM (M14) was 96.2% and the activity at 10 µM (MDA-MB-435) was 110%. It also gave a % growth at 10 µM (SK-MEL-2) of 120%, a % cell growth at 10 µM (SK-MEL-28) of 104% and an activity at 10 µM (SK-MEL-5) of 103%. It also gave a percent cell growth at 10 µM (UACC-257) of 106%, a % growth at 10 µM (UACC-62) of 94.3% and an activity at 10 µM (IGROV1) of 101%. For the same compound, the % growth at 10 µM (OVCAR-3) was 109%, the % growth at 10 µM (OVCAR-4) was 115% and the percent cell growth at 10 µM (OVCAR-5) was 108%. It also gave a % growth of cells at 10 µM (OVCAR-8) of 109%, a cell growth percent at 10 µM (NCI/ADR-RES) of 105% and a % growth at 10 µM (SK-OV-3) of 95.6%. It also gave a % growth at 10 µM (786-0) of 92.5%, a % growth at 10 µM (A498) of 125% and a % growth at 10 µM (ACHN) of 108%. The % growth at 10 µM (CAKI-1) was 96%, the activity at 10 µM (RXF 393) was 89.5% and the % growth at 10 µM (SN12C) was 95.9%. It also gave a % cell growth at 10 µM (TK-10) of 140%, a % cell growth at 10 µM (UO-31) of 90.1% and a percent cell growth at 10 µM (PC-3) of 103%. The % growth at 10 µM (DU-145) was 111%, the activity at 10 µM (MCF7) was 89.1% and the % growth at 10 µM (MDA-MB-231/ATCC) was 94.4%. It also gave an activity at 10 µM (HS 578T) of 102%, a % cell growth at 10 µM (BT-549) of 88.5% and an activity at 10 µM (T-47D) of 103%. The percent cell growth at 10 µM (MDA-MB-468) was 91.1%, the activity at 10 µM [1] was 101% and the “activity on all 60 cancer cell lines tested (in words)” value [1] was “weak activity”.

For `N=C(NN=Cc1ccc(Cl)cc1)c1c(N)nc(S)nc1-c1ccc(Cl)cc1Cl` [Compound 4n, 4-Amino-N'-[(4-chlorophenyl)methylene]-6–(2,4-dichlorophenyl)-2-mercapto pyrimidine-5-carboximidohydrazide], the % cell growth at 10 µM (CCRF-CEM) was 106%, the % growth at 10 µM (HL-60(TB)) was 108% and the % growth at 10 µM (K-562) was 89.9%. For the same compound, the activity at 10 µM (MOLT-4) was 92.4%, the % growth at 10 µM (RPMI-8226) was 102% and the percent cell growth at 10 µM (SR) was 90.6%. For the same compound, the % growth at 10 µM (A549/ATCC) was 95.8%, the % cell growth at 10 µM (EKVX) was 108% and the % growth at 10 µM (HOP-62) was 83.1%. It also gave a % growth at 10 µM (HOP-92) of 64.2%, a % growth at 10 µM (NCI-H226) of 86.3% and an activity at 10 µM (NCI-H23) of 92.9%. The activity at 10 µM (NCI-H460) was 102%, the % growth at 10 µM (NCI-H522) was 90.6% and the % growth at 10 µM (COLO 205) was 114%. The % growth at 10 µM (HCC-2998) was 101%, the activity at 10 µM (HCT-116) was 94.6% and the activity at 10 µM (HCT-15) was 101%. For the same compound, the % growth at 10 µM (HT29) was 121%, the % growth at 10 µM (KM12) was 108% and the % growth at 10 µM (SW-620) was 106%. For the same compound, the activity at 10 µM (SF-268) was 100%, the % cell growth at 10 µM (SF-295) was 73.4% and the % growth at 10 µM (SF-539) was 87.3%. It also gave an activity at 10 µM (SNB-19) of 90.9%, a % growth at 10 µM (U251) of 70.5% and an activity at 10 µM (LOX IMVI) of 95.4%. For the same compound, the % growth at 10 µM (MALME-3M) was 81.6%, the % growth at 10 µM (M14) was 95.6% and the activity at 10 µM (MDA-MB-435) was 104%. It also gave a % growth at 10 µM (SK-MEL-2) of 108%, a % cell growth at 10 µM (SK-MEL-28) of 106% and an activity at 10 µM (SK-MEL-5) of 103%. The percent cell growth at 10 µM (UACC-257) was 108%, the % growth at 10 µM (UACC-62) was 90.9% and the activity at 10 µM (IGROV1) was 97%. The % growth at 10 µM (OVCAR-3) was 110%, the % growth at 10 µM (OVCAR-4) was 107% and the percent cell growth at 10 µM (OVCAR-5) was 105%. It also gave a % growth of cells at 10 µM (OVCAR-8) of 91.2%, a cell growth percent at 10 µM (NCI/ADR-RES) of 105% and a % growth at 10 µM (SK-OV-3) of 92.2%. It also gave a % growth at 10 µM (786-0) of 78%, a % growth at 10 µM (A498) of 122% and a % growth at 10 µM (ACHN) of 83.7%. For the same compound, the % growth at 10 µM (CAKI-1) was 98.6%, the activity at 10 µM (RXF 393) was 84.7% and the % growth at 10 µM (SN12C) was 90.1%. It also gave a % cell growth at 10 µM (TK-10) of 143%, a % cell growth at 10 µM (UO-31) of 93.2% and a percent cell growth at 10 µM (PC-3) of 102%. The % growth at 10 µM (DU-145) was 109%, the activity at 10 µM (MCF7) was 83.6% and the % growth at 10 µM (MDA-MB-231/ATCC) was 82.5%. It also gave an activity at 10 µM (HS 578T) of 102%, a % cell growth at 10 µM (BT-549) of 92.6% and an activity at 10 µM (T-47D) of 92.6%. The percent cell growth at 10 µM (MDA-MB-468) was 96.1%, the activity at 10 µM [1] was 97.2% and the “activity on all 60 cancer cell lines tested (in words)” value [1] was “weak activity”.

Reference: publication PMC10866072, “Design, synthesis, molecular modelling and biological evaluation of novel 6-amino-5-cyano-2-thiopyrimidine derivatives as potent anticancer agents against leukemia and apoptotic inducers” (Journal of Enzyme Inhibition and Medicinal Chemistry, 2024)
